{
  "source": "patent EP2949220A1",
  "about": "“Nutraceutic supplement for bees families and process for its administration” (SC Teso Spec SRL, priority 2014, dated 2015)",
  "key": {"[1]": {"test_system": "lipid peroxides (as malondialdehide)", "assay": "Oxidative stress in midguts of bees fed bee candy (lipid peroxides as MDA, thiobarbituric acid)", "format": "in vivo, honey bees", "details": "3 days, control = 100%, 4.3 µg/g maltol, 0.41 µg/g p-coumaric acid, 0.45 µg/g caffeic acid where present (mixture row prints µg/l)", "method": "(§1) Optimization of the ratio of hydroxycinnamic acids, p-coumaric and caffeic, and maltol, was obtained by using experiments designed according to response surface technique, using the Software Design-Expert® v. 9.0 (Stat-Ease, Minneapolis, MN, USA). Two bioassays were used, wherein the effect of different combinations of maltol and hydroxycinnamic acids, p-coumaric and caffeic, were determined, on fructophilic lactobacteria growth and on oxidative stress and on the induction of CYP9Q, enzyme from cytochrome P450 monooxigenase class, with key role in defense systems of bees (Mao et al., 2013, PNAS, 110: 8842-8846). […] After three days bees midguts were taken by dissection, frozen in liquid nitrogen and stored at -80 ° C, to extract total RNA for quantitative RT-PCR analysis of CYP9Q3 expression and for the determination of lipid peroxides (as malondialdehide) as markers of oxidative stress. RNA was extracted from frozen abdomens by TRIzol method (Invitrogen, Thermo Fisher Scientific, Waltham, MA, USA), treated with DNAse (Ambion® protocol, Thermo Fisher Scientific) and used for the quantitative analysis of the expression CYP9Q by RT-PCR, as described by Mao et al., 2011 (PNAS, 108, 12657-12662). Lipid peroxides were determined as malondialdehid ? , with tiobarbituric acid (Rael et al., 2004, J. Biochem. Mol. Biol, 3, 749-752)."}, "CYP9Q": {"test_system": "CYP9Q", "assay": "CYP9Q induction in bees fed bee candy (quantitative RT-PCR)", "format": "in vivo, honey bees", "details": "3 days, control = 100%, 4.3 µg/g maltol, 0.41 µg/g p-coumaric acid, 0.45 µg/g caffeic acid where present (mixture row prints µg/l)", "method": "as §1"}, "[2]": {"test_system": "Lactobacillus kunkeei DSM 12361", "assay": "Growth of fructophilic lactobacteria on FYP broth with glucose-fructose syrup", "format": "cell-based", "details": "FYP medium with glucose-fructose syrup; 21.5 mg/l maltol, 2.05 mg/l p-coumaric acid, 2.25 mg/l caffeic acid where present", "method": "Optimization of the ratio of hydroxycinnamic acids, p-coumaric and caffeic, and maltol, was obtained by using experiments designed according to response surface technique, using the Software Design-Expert® v. 9.0 (Stat-Ease, Minneapolis, MN, USA). Two bioassays were used, wherein the effect of different combinations of maltol and hydroxycinnamic acids, p-coumaric and caffeic, were determined, on fructophilic lactobacteria growth and on oxidative stress and on the induction of CYP9Q, enzyme from cytochrome P450 monooxigenase class, with key role in defense systems of bees (Mao et al., 2013, PNAS, 110: 8842-8846). […] The ratio 4.1 parts p-coumaric acid, 4.5 parts caffeic acid and 43 parts maltol, determined as being optimal in terms L. kunkeei development enhancement, was re-tested in laboratory conditions, using 400 g/l glucose-fructose syrup (Isosugar 031™, Tate and Lyle, London, United Kingdom, 74.8% dry matter, 50.2% of which is fructose), instead of 300 g/l of fructose on FYP broth. […]"}},
  "data": [
    {"smiles": "Cc1occc(=O)c1O", "note": "[maltol, 3-Hydroxy-2-methyl-4H-piran-4-one]", "values": [
      {"measurement": "Oxidative stress MDA (%)", "setting": "[1]", "value": "123,7%"},
      {"measurement": "Inducing CYP9Q (%)", "setting": "CYP9Q", "value": 102.9, "unit": "%"},
      {"measurement": "Culture development (% control)", "setting": "[2]", "value": 76.8, "unit": "% control"},
      {"measurement": "Lactic acid production (% control)", "setting": "[2]", "value": "67,9 % control"}
    ]}
  ]
}
